# Assays:
# MDA-MB-436 cells = assay: In vitro inhibition of MDA-MB-436 cell proliferation (CTG, 10 days); format: cell-based; conditions: Homo sapiens, MDA-MB-436, 240 h, 10 days incubation, read-out: Inhibitory activity against MDA-MB-436 cells (IC50)
# Description: MDA-MB-436 cells were seeded in a 96-well low-adsorption plate at 1200 cells/well. After the cells adhered to the wall overnight, the serially diluted compound was added, and the cells were incubated for another 10 days. The ATP level of the cells was then determined by CTG to evaluate the cell growth. The growth inhibition percentages and IC50 of the compounds were calculated compared to the DMSO group.
# [1] = In vitro liver microsomal stability, human; format: in vitro ADME; conditions: 1 μM compound, 500 μg/mL liver microsomes, NADPH
# [2] = In vitro liver microsomal stability, mouse; format: in vitro ADME; conditions: 1 μM compound, 500 μg/mL liver microsomes, NADPH
# [3] = In vivo pharmacokinetic experiment in CD-1 mice; conditions: mouse, plasma, CD-1 female mice; for Vd: read-out: Vdss
# Description: CD-1 female mice aged 7 to 10 weeks were intravenously administered and orally administered at doses of 1 mg/kg and 10 mg/kg, respectively.
# On the day of the experiment, animals in the intravenous group were given the corresponding compound by single injection via the tail vein at an administration volume of 2 mL/kg, and animals in the oral group were given the corresponding compound by single intragastric injection at an administration volume of 10 mL/kg. The animals were weighed before administration, and their administration volume was calculated according to their body weight. […] About […] of whole blood was collected through the orbital venous plexus at each time point and used to prepare plasma for concentration determination by high performance liquid chromatography-tandem mass spectrometry (LC-MS/MS). All animals were suffocated by CO2 after the PK samples were collected at the last time point. The plasma concentrations were processed using a non-compartmental model of Winnolin™ version 8.2 (Pharsight, mountain View, CA) pharmacokinetic software, and the pharmacokinetic parameters were calculated using a linear-log trapezoidal method.
# [4] = tested on: MDA-MB-436 xenograft tumor; assay: In vivo efficacy in MDA-MB-436 xenograft tumor model; parameters: species or system mouse; conditions: for Tumor growth inhibition rate: after 28 days
# Description: MDA-MB-436 cells were subjected to adherent culture in an L-15 medium containing 10% fetal bovine serum and 1% AA at 37° C. with 5% CO2. The cells were digested with trypsin and routinely passaged twice a week. When cells were maintained in the exponential growth phase with viability greater than 95%, the cells were collected, counted, and inoculated. Each 6- to 8-week-old female BALB/c nude mouse was inoculated with 10×10^6 MDA-MB-436 cells+Matrigel in a volume of 0.2 mL in the right cervicodorsal region. […] The compounds were orally administered once a day, and the tumor volume and body weight of the mice were measured twice a week. After 28 days of administration, the mice were sacrificed. Data were processed using software such as Excel.
# [5] = 0 days (start of administration), BALB/c nude mice
# [6] = 28 days, oral once a day, […] day 1-7 and 3 mg/kg day 8-28
# [7] = oral once a day, […] day 1-7 and 3 mg/kg day 8-28
Structure (SMILES),IC50 (MDA-MB-436 cells),half-life at 1 μM [1],half-life at 1 μM [2],"AUC(0-t) ([3]; iv, Injection (1 mg/kg))","clearance ([3]; iv, Injection (1 mg/kg))","half-life ([3]; iv, Injection (1 mg/kg))","Vd ([3]; iv, Injection (1 mg/kg))",AUC(0-t) ([3]; Oral administration (10 mg/kg)),Cmax ([3]; Oral administration (10 mg/kg)),Tmax ([3]; Oral administration (10 mg/kg)),bioavailability ([3]; Oral administration (10 mg/kg)),half-life ([3]; Oral administration (10 mg/kg)),"Mean tumor volume [4, 5]","Mean tumor volume [4, 6]","Tumor growth inhibition rate [4, 7]"
"CNC(=O)c1ccc(N2CCN(Cc3ccc4nc(C)c(=O)[nH]c4c3F)CC2)c(F)n1 [AZD9574, reference compound]",9 nM,1.72 h,2.1 h,2550 ng·h/mL,6.42 mL/min/kg,4.54 h,2.03 L/kg,25400 ng·h/mL,5140 ng/mL,0.5 h,99.5%,4.37 h,212 mm^3,126 mm^3,141%
Cc1nc2ccc(CN3CCN(c4ccc(C(=O)N[C@H]5C[C@H]5F)nc4F)CC3)cc2[nH]c1=O [Compound 1],1.6 nM,8.23 h,4.88 h,3680 ng·h/mL,4.52 mL/min/kg,3.13 h,1.13 L/kg,60800 ng·h/mL,14800 ng/mL,0.17 h,166%,2.08 h,212 mm^3,87 mm^3,159%
Cc1nc2ccc(CN3CCN(c4ccc(C(=O)N[C@@H]5C[C@@H]5F)nc4F)CC3)cc2[nH]c1=O [Compound 2],2.4 nM,3.88 h,5.15 h,2120 ng·h/mL,7.7 mL/min/kg,1.48 h,0.76 L/kg,30900 ng·h/mL,10600 ng/mL,0.5 h,146%,1.71 h,,,

# Continued, in another order:
IC50 (MDA-MB-436 cells),half-life at 1 μM [1],half-life at 1 μM [2],"AUC(0-t) ([3]; iv, Injection (1 mg/kg))","clearance ([3]; iv, Injection (1 mg/kg))","half-life ([3]; iv, Injection (1 mg/kg))","Vd ([3]; iv, Injection (1 mg/kg))",AUC(0-t) ([3]; Oral administration (10 mg/kg)),Cmax ([3]; Oral administration (10 mg/kg)),Tmax ([3]; Oral administration (10 mg/kg)),bioavailability ([3]; Oral administration (10 mg/kg)),half-life ([3]; Oral administration (10 mg/kg)),Structure (SMILES),"Mean tumor volume [4, 5]","Mean tumor volume [4, 6]","Tumor growth inhibition rate [4, 7]"
2.6 nM,,,,,,,,,,,,CCc1nc2ccc(CN3CCN(c4ccc(C(=O)N[C@@H]5C[C@@H]5F)nc4F)CC3)cc2[nH]c1=O [Compound 6],,,
3.7 nM,3.8 h,9.43 h,3590 ng·h/mL,4.62 mL/min/kg,3.41 h,0.73 L/kg,60800 ng·h/mL,16000 ng/mL,0.08 h,192%,1.89 h,Cc1nc2ccc(CN3CCN(c4ccc(C(=O)NC5CC5)nc4F)CC3)cc2[nH]c1=O [Compound 9],212 mm^3,185 mm^3,113%
16 nM,1.67 h,14.4 h,2170 ng·h/mL,7.5 mL/min/kg,5.07 h,2.38 L/kg,20400 ng·h/mL,4530 ng/mL,0.17 h,93%,3.8 h,Cc1nc2ccc(CN3CCN(c4ccc(C(=O)NC5CC5)nc4F)CC3)c(F)c2[nH]c1=O [Compound 10],,,
1.7 nM,,,,,,,,,,,,CCc1nc2ccc(CN3CCN(c4ccc(C(=O)N[C@H]5C[C@H]5F)nc4F)CC3)cc2[nH]c1=O [Compound 11],,,

# Source: patent US20260265221A1, “PARP INHIBITOR, AND PREPARATION METHOD THEREFOR AND MEDICAL USE THEREOF” (WIGEN BIOMEDICINE TECHNOLOGY (SHANGHAI) CO., LTD., priority 2023, published 2026)
